Consider five molecules from patent publication US7514438B2, “Melanin concentrating hormone receptor antagonist” (Amgen, Inc., priority 2003, dated 2009).

Read-outs that look alike come from different tables or passages of the source.

In test [1] the target is T1, rat MCH 1 receptor (rMCH1R) (Rattus norvegicus, UniProt P97639).
T1 construct: expressed in transfected cells; host or cells: HEK 293 (membranes)
The experiment in a line: 125I-MCH ligand binding assay, rMCH. The settings on record: HEK 293 membranes, 0.2 nM 125I native-MCH; 100 μM or less list; read-out: IC50 in the rMCH binding assay. The essentials:
(§1)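 HEK293 membranes expressing rat or human MCH1R (100 µg tissue) were incubated for 90 min at 30 °C with 0.2 nM 125I-native-MCH and test compound in HEPES/MgCl2/BSA buffer with protease inhibitors, pH 7.4. Non-specific binding used 1 µM cold MCH. Filter-bound radioactivity gave IC50 by nonlinear regression.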

The target in a further test is T2, human MCH receptor (Homo sapiens, UniProt Q99705).
T2 construct: expressed in transfected cells
Kind of test: hMCH FLIPR calcium mobilization assay. The class given is cell-based. The settings on record: read-out: Ki in the hMCH FLIPR assay. For orientation: Calcium assays in cells follow changes in intracellular calcium, usually with a dye or a luminescent sensor.

Test [2] addresses T3, human MCH 1 receptor (hMCH1R) (Homo sapiens, UniProt Q99705).
T3 construct: expressed in transfected cells; host or cells: HEK 293 (membranes)
The experiment in a line: 125I-MCH ligand binding assay, hMCH. The settings on record: HEK 293 membranes, 0.2 nM 125I native-MCH, read-out: IC50 in the hMCH binding assay. The essentials: as §1

Test [3] deals with T4, rat MCH1 receptor (Rattus norvegicus, UniProt P97639). The experiment in a line: rMCH FLIPR calcium mobilization assay (CHOK1-Gqi cells). Set-up: expressed in transfected cells; host or cells: CHOK1-Gqi. The settings on record: CHOK1-Gqi cells, rat MCH1 receptor; 100 μM or less list; read-out: Ki in the rMCH FLIPR assay. The class given is cell-based. A digest of the protocol:
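Fura-2-loaded CHOK1-Gqi cells expressing rat MCH1R read on FLIPR; agonist mode up to 1 μM; antagonist mode with 10 min pre-incubation (typically 1 μM) then MCH at 5-fold EC50; pA2 from linear regression of MCH EC50 shifts by 10-fold-spaced antagonist concentrations.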

In test [4] the target is T4, rat MCH1 receptor. Kind of test: HT-PS100 calcium mobilization functional assay. The class given is cell-based. Set-up: expressed in transfected cells. The settings on record: HEK 293 cells stably transfected with rat MCH1 receptor; 100 nM or less list; read-out: Ki in the HT-PS100 assay.

T3 sequence (Q99705 whole entry): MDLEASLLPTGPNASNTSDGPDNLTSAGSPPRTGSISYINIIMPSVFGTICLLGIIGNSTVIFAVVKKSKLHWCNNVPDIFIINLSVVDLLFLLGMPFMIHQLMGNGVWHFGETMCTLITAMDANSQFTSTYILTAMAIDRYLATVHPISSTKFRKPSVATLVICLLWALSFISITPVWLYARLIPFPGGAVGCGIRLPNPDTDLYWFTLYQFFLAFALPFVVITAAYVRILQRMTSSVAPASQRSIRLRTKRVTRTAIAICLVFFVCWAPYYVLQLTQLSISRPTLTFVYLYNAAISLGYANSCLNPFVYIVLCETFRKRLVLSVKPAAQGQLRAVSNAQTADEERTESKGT
T2 sequence (Q99705 whole entry): as above
T1 sequence (P97639 whole entry): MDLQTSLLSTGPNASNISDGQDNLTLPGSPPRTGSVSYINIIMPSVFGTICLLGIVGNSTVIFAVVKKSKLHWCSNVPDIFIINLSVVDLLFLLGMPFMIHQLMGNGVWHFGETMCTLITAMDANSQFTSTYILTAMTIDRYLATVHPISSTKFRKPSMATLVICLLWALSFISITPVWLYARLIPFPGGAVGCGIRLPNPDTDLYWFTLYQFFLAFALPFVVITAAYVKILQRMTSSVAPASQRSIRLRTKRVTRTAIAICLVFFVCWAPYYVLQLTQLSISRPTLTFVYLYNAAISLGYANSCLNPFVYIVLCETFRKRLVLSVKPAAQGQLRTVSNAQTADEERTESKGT
T4 sequence (P97639 whole entry): as above

Take `Cc1cccc([C@@H](c2nnnn2-c2c(C)cccc2C)N2CCN(C/C=C/c3ccccc3)CC2)c1` (racemic) [Compound 61, 1-{[1-(2,6-dimethylphenyl)-1H-tetrazol-5-yl]-m-tolylmethyl}-4-(3-phenylallyl) piperazine]: the 50% inhibitory concentration (IC50) in test [1] and in test [2] (100 μM or less list) was no more than 100 µM in each case. Besides, the inhibitory constant (Ki) (commonly the equilibrium dissociation constant of an inhibitor or competing ligand from its target) is no more than 100 µM at human MCH receptor (100 μM or less list), no more than 100 µM on rat MCH1 receptor [3] and no more than 0.1 µM at rat MCH1 receptor [4].
Consider `Cc1cccc(C)c1-n1nnnc1[C@H](c1ccc2ccccc2c1)N1CCN(C/C=C/c2ccccc2)CC1` (racemic) [Compound 62, 1-{[1-(2,6-dimethylphenyl)-1H-tetrazol-5-yl]naphthalen-2-ylmethyl}-4-(3-phenylallyl)piperazine], for which the IC50 (in general, the concentration needed to halve the response being measured) was no more than 100 µM in test [1], no more than 0.1 µM in test [2] (100 nM or less list) and no more than 100 µM in test [2] (100 μM or less list). Further, the Ki at human MCH receptor (100 μM or less list) is no more than 100 µM; on rat MCH1 receptor [3], no more than 100 µM; at rat MCH1 receptor [4] it was no more than 0.1 µM.
In the case of `Cc1cccc(C)c1-n1nnnc1[C@H](c1cccc(F)c1)N1CCN(C/C=C/c2ccccc2)CC1` (racemic) [Compound 48, 1-[[1-(2,6-dimethyiphenyl)-1H-tetrazol-5-yl]-(3-fluorophenyl)methyl]-4-(3-phenylallyl)piperazine], the half-maximal inhibitory concentration (IC50) in test [1] and in test [2] (100 μM or less list) was no more than 100 µM each time. The inhibition constant (Ki) on human MCH receptor (100 nM or less list) is no more than 0.1 µM; on human MCH receptor (100 μM or less list), no more than 100 µM; at rat MCH1 receptor [3], no more than 100 µM; on rat MCH1 receptor [4], no more than 0.1 µM.
For `Cc1cccc(C)c1-n1nnnc1[C@H](c1ccccc1)N1CCN(C/C=C/c2ccccc2)CC1` (racemic) [Compound 4, 1-{[1-(2,6-dimethyiphenyl)-1H-tetrazol-5-yl]phenylmethyl}-4-(3-phenylallyl)piperazine], the 50% inhibitory concentration (IC50) in test [1] was no more than 100 µM; in test [2] (100 nM or less list), no more than 0.1 µM; in test [2] (100 μM or less list), no more than 100 µM. For the same molecule, the Ki at human MCH receptor (100 nM or less list) is no more than 0.1 µM; at human MCH receptor (100 μM or less list), no more than 100 µM; at rat MCH1 receptor [3], no more than 100 µM; at rat MCH1 receptor [4] it was no more than 0.1 µM.
For `Cc1cccc(C)c1-n1nnnc1[C@H](c1ccc(Cl)cc1)N1CCN(C/C=C/c2ccccc2)CC1` (racemic) [Compound 57, 1-{(4-chlorophenyl)-[1-(2,6-dimethyiphenyl)-1H-tetrazol-5-yl]methyl}-4-(3-phenylallyl)piperazine], the 50% inhibitory concentration (IC50) in test [1] and in test [2] (100 μM or less list) was no more than 100 µM in each case. Further, the Ki is no more than 100 µM on human MCH receptor (100 μM or less list), no more than 100 µM at rat MCH1 receptor [3] and no more than 0.1 µM at rat MCH1 receptor [4].
